In patent US20260137706A1, “METHODS OF TREATING INFLAMMATORY DISEASES” (INTERLINE THERAPEUTICS, INC., priority 2023, published 2026):

Key:
[1] = test system: NF-κB pathway (SEAP) in THP1-Dual cells; assay: THP-1 Dual cell SEAP assay (L18-MDP stimulated); type: cell-based; conditions: Homo sapiens, THP1-Dual, read-out: NF-κB THP1 IC50 bin
Procedure, shortened: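 IC50 values derive from non-linear regression of % inhibition, calculated against DMSO/L18-MDP-treated wells after media-only subtraction. NF-κB SEAP activity was read at OD 620-655 nm (QUANTI-Blue, 2 h, 37 °C) from supernatants of THP1-Dual cells. Cells had been compound-treated 30 min before overnight (20-24 h) stimulation with 10 ng/mL final L18-MDP.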

[2] = target: T1, binding of His-XIAP(BIR2)-avi fusion protein to GST-RIPK2 fusion protein (RIPK2/XIAP) (Homo sapiens, UniProt O43353); assay: RIPK2-XIAP binding competition PPI assay (TR-FRET); conditions: RIPK2/XIAP binding competition PPI assay; for Emax: Amax, read-out: PPI Amax bin; for IC50: read-out: PPI IC50 bin
T1 construct: made in house; host or cells: baculovirus infected Sf9 cells
Procedure, shortened: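 Compounds (in DMSO, 100-fold stock) incubated 120 min at 23 °C with 1 nM GST-RIPK2 (aa 1-310) and 25 nM His-XIAP(BIR2 aa 152-231)-avi, plus anti-His-XL665 and anti-GST-Tb, in pH 7.5 Tris buffer. Read-out: 665/520 nm emission ratio. Normalized to no-inhibitor (0%) and 50 nM GSK583 (−100%); Amax binned A–D.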

[3] = target: T2, GST-RIPK2 fusion protein (human RIPK2, amino acids 1-310) (Homo sapiens, UniProt O43353); assay: RIPK2 binding competition assay (TR-FRET, Tracer 199 displacement); conditions: 10 nM Tracer 199, 1 nM GST-RIPK2, read-out: RIPK2 IC50
T2 construct: made in house; host or cells: baculovirus infected Sf9 cells
Source text: The ability of selected compounds of Formula (I) to inhibit the binding of an Alexa647-labelled ATP-competitive kinase inhibitor to a GST-RIPK2 fusion protein was quantified employing the TR-FRET-based RIPK2 binding competition assay as described in the following paragraphs.
Recombinant fusion protein of N-terminal Glutathione-S-Transferase (GST) and a fragment of human RIPK2 (amino acids 1-310 of accession number 043353), expressed in baculovirus infected Sf9 cells, purified via glutathione affinity chromatography, was used as GST-RIPK2 fusion protein. Tracer 199 from Life Technologies (catalogue no. PR9115B) was used as Alexa647-labelled ATP-competitive kinase inhibitor.
For the assay, 50 nL of a 100-fold concentrated solution of each test compound in DMSO was pipetted into either a black low volume 384-well microtiter plate or a black 1536-well microtiter plate (both Greiner Bio-One, Frickenhausen, Germany), 3 μL solution of Tracer 199 (16.7 nM=>final concentration in 5 μL assay volume is 10 nM) in aqueous assay buffer (25 mM Tris/HCl pH 7.5, 10 mM magnesium chloride (MgCl2), 5 mM β-glycerophosphate, 2.5 mM dithiothreitol (DTT), 0.5 mM ethylene glycol-bis(2-aminoethylether)-N,N,N′,N′-tetraacetic acid (EGTA), 0.5 mM sodium ortho-vanadate, 0.01% (w/v) bovine serum albumin (BSA), 0.005% (w/v) Pluronic F-127 (Sigma)) were added. Then the binding competition was started by the addition of 2 μL of a solution of the GST-RIPK2 fusion protein (2.5 nM=>final conc. in the 5 μL assay volume is 1 nM) and of Anti-GST-Tb (1.25 nM=>final conc. in the 5 μL assay volume is 0.5 nM), a Lumi4®—Tb cryptate-conjugated anti-GST antibody from PerkinElmer (catalogue no 61GSTTAH), in assay buffer.
The resulting mixture was incubated 45 min at 22° C. to allow the formation of a complex between the Tracer 199, the fusion protein and Anti-GST-Tb. Subsequently, the amount of this complex was evaluated by measurement of the resonance energy transfer from the Tb-cryptate to the Tracer 199. Therefore, the fluorescence emissions at 620 nm and 665 nm after excitation at 337 nm were measured in a TR-FRET reader, e.g. a Pherastar FS (BMG Labtechnologies, Offenburg, Germany) or a Viewlux (PerkinElmer). The ratio of the emissions at 665 nm and at 620 nm was taken as the measure of the amount of the complex. The data were normalized (assay reaction without inhibitor=0% activity, all other assay components but no GST-RIPK2 fusion protein=−100% activity).
Table A1 below lists IC50 values of selected compounds of Formula (I) measured in the RIPK2 binding competition assay.

T2 sequence (O43353 1-310): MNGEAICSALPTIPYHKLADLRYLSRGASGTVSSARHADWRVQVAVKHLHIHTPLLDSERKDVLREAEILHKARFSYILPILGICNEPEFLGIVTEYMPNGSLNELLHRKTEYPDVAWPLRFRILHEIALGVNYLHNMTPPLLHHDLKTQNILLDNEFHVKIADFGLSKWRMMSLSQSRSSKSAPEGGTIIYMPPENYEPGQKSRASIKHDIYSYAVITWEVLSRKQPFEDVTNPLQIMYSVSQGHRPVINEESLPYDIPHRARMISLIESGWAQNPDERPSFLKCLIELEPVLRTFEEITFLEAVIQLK
T1 sequence (O43353 1-310 limits assumed): as the sequence (O43353 1-310) above

| SMILES | IC50 [1] [nM] | Emax [2] [%] | IC50 [2] [nM] | IC50 [3] [nM] |
| --- | --- | --- | --- | --- |
| COCCn1cc(-c2cc3ncc(-c4cc(F)c(N)nc4F)n3cc2S(=O)(=O)C(C)(C)C)cn1 [Example 23, 5-(6-(tert-butylsulfonyl)-7-(1-(2-methoxyethyl)-1H-pyrazol-4-yl)imidazo[1,2-a]pyridin-3-yl)-3,6-difluoropyridin-2-amine] | 250 to 1000 | > 80 | 2.5 to 20 | 2.5 to 20 |
| CC(C)(C)S(=O)(=O)c1cn2c(-c3cc(F)c(N)nc3F)cnc2cc1OCCn1cccn1 [Example 24, 5-(7-(2-(1H-pyrazol-1-yl)ethoxy)-6-(tert-butylsulfonyl)imidazo[1,2-a]pyridin-3-yl)-3,6-difluoropyridin-2-amine] | 50 to 250 | > 80 | 2.5 to 20 | 2.5 to 20 |
| Cn1ccc(COc2cc3ncc(-c4cc(F)c(N)nc4F)n3cc2S(=O)(=O)C(C)(C)C)n1 [Example 25, 5-(6-(tert-butylsulfonyl)-7-((1-methyl-1H-pyrazol-3-yl)methoxy)imidazo[1,2-a]pyridin-3-yl)-3,6-difluoropyridin-2-amine] | 250 to 1000 | > 80 | 2.5 to 20 | 2.5 to 20 |
| CC1(COc2cc3ncc(-c4cc(F)c(N)nc4F)n3cc2S(=O)(=O)C(C)(C)C)COC1 [Example 26, 5-(6-(tert-butylsulfonyl)-7-((3-methyloxetan-3-yl)methoxy)imidazo[1,2-a]pyridin-3-yl)-3,6-difluoropyridin-2-amine] | 50 to 250 | > 80 | 2.5 to 20 | 1 to 2.5 |
| Cn1ccc(-c2cc3ncc(-c4cc(F)c(N)nc4F)n3cc2S(=O)(=O)C(C)(C)C)n1 [Example 27, 5-(6-(tert-butylsulfonyl)-7-(1-methyl-1H-pyrazol-3-yl)imidazo[1,2-a]pyridin-3-yl)-3,6-difluoropyridin-2-amine] | > 1000 | > 80 | > 20 | > 20 |
| CC(C)(O)COc1cc2ncc(-c3cc(F)c(N)nc3F)n2cc1S(=O)(=O)C(C)(C)C [Example 28, 1-((3-(6-amino-2,5-difluoropyridin-3-yl)-6-(tert-butylsulfonyl)imidazo[1,2-a]pyridin-7-yl)oxy)-2-methylpropan-2-ol] | 50 to 250 | > 80 | 2.5 to 20 | 1 to 2.5 |
| CC(C)(C)S(=O)(=O)c1cn2c(-c3cc(F)c(N)nc3F)cnc2cc1OCCN1CCOC1=O [Example 29, 3-(2-((3-(6-amino-2,5-difluoropyridin-3-yl)-6-(tert-butylsulfonyl)imidazo[1,2-a]pyridin-7-yl)oxy)ethyl)oxazolidin-2-one] | 250 to 1000 | > 80 | 2.5 to 20 | 2.5 to 20 |
| Cn1cc(COc2cc3ncc(-c4cc(F)c(N)nc4F)n3cc2S(=O)(=O)C(C)(C)C)cn1 [Example 30, 5-(6-(tert-butylsulfonyl)-7-((1-methyl-1H-pyrazol-4-yl)methoxy)imidazo[1,2-a]pyridin-3-yl)-3,6-difluoropyridin-2-amine] | 50 to 250 | > 80 | 2.5 to 20 | 2.5 to 20 |
| CC(C)(C)S(=O)(=O)c1cn2c(-c3cc(F)c(N)nc3F)cnc2cc1-c1cn[nH]c1 [Example 31, 5-(6-(tert-butylsulfonyl)-7-(1H-pyrazol-4-yl)imidazo[1,2-a]pyridin-3-yl)-3,6-difluoropyridin-2-amine] | > 1000 | > 80 | 2.5 to 20 | 2.5 to 20 |
| CC(C)(C)S(=O)(=O)c1cn2c(-c3cc(F)c(N)nc3F)cnc2cc1OCC1COC1 [Example 32, 5-(6-(tert-butylsulfonyl)-7-(oxetan-3-ylmethoxy)imidazo[1,2-a]pyridin-3-yl)-3,6-difluoropyridin-2-amine] | 50 to 250 | > 80 | 2.5 to 20 | 1 to 2.5 |
| CC(C)(C)S(=O)(=O)c1cn2c(-c3cc(F)c(N)nc3F)cnc2cc1OC1COC1 [Example 33, 5-(6-(tert-butylsulfonyl)-7-(oxetan-3-yloxy)imidazo[1,2-a]pyridin-3-yl)-3,6-difluoropyridin-2-amine] | > 1000 | > 80 | 2.5 to 20 | 2.5 to 20 |
| C[C@H](O)CCOc1cc2ncc(-c3cc(F)c(N)nc3F)n2cc1S(=O)(=O)C(C)(C)C [Example 34, (S)-4-((3-(6-amino-2,5-difluoropyridin-3-yl)-6-(tert-butylsulfonyl)imidazo[1,2-a]pyridin-7-yl)oxy)butan-2-ol] | 250 to 1000 | > 80 | 2.5 to 20 | 2.5 to 20 |
| COC1(COc2cc3ncc(-c4cc(F)c(N)nc4F)n3cc2S(=O)(=O)C(C)(C)C)COC1 [Example 35, 5-(6-(tert-butylsulfonyl)-7-((3-methoxyoxetan-3-yl)methoxy)imidazo[1,2-a]pyridin-3-yl)-3,6-difluoropyridin-2-amine] | 250 to 1000 | > 80 | 2.5 to 20 | 2.5 to 20 |
| C[C@@H](O)CCOc1cc2ncc(-c3cc(F)c(N)nc3F)n2cc1S(=O)(=O)C(C)(C)C [Example 36, (R)-4-((3-(6-amino-2,5-difluoropyridin-3-yl)-6-(tert-butylsulfonyl)imidazo[1,2-a]pyridin-7-yl)oxy)butan-2-ol] | 50 to 250 | > 80 | 2.5 to 20 | 1 to 2.5 |
| CC(C)(C)S(=O)(=O)c1cn2c(-c3cc(F)c(N)nc3F)cnc2cc1-c1cc[nH]n1 [Example 37, 5-(6-(tert-butylsulfonyl)-7-(1H-pyrazol-3-yl)imidazo[1,2-a]pyridin-3-yl)-3,6-difluoropyridin-2-amine] | > 1000 | > 80 | > 20 | > 20 |
| CC(C)(C)S(=O)(=O)c1cn2c(-c3cc(F)c(N)nc3F)cnc2cc1OCC1(O)COC1 [Example 38, 3-(((3-(6-amino-2,5-difluoropyridin-3-yl)-6-(tert-butylsulfonyl)imidazo[1,2-a]pyridin-7-yl)oxy)methyl)oxetan-3-ol] | 50 to 250 | > 80 | 2.5 to 20 | 1 to 2.5 |
| CC(C)(C)S(=O)(=O)c1cn2c(-c3cc(F)c(N)nc3F)cnc2cc1CO [Example 39, (3-(6-amino-2,5-difluoropyridin-3-yl)-6-(tert-butylsulfonyl)imidazo[1,2-a]pyridin-7-yl)methanol] | > 1000 | > 80 | > 20 | > 20 |
| COc1cc2nc(N)c(-c3cc(F)c(N)nc3F)n2cc1S(=O)(=O)C(C)(C)C [Example 40, 3-(6-amino-2,5-difluoropyridin-3-yl)-6-(tert-butylsulfonyl)-7-methoxyimidazo[1,2-a]pyridin-2-amine] | > 1000 | 55 to 80 | > 20 | > 20 |
| CC(C)(C)S(=O)(=O)c1cn2c(-c3cc(F)c(N)nc3F)cnc2cc1OCCN1CC(O)C1 [Example 41, 1-(2-((3-(6-amino-2,5-difluoropyridin-3-yl)-6-(tert-butylsulfonyl)imidazo[1,2-a]pyridin-7-yl)oxy)ethyl)azetidin-3-ol] | > 1000 | > 80 | 2.5 to 20 | 2.5 to 20 |
